B1: TopBP1-BRCT0-5: 6Myc-TEV2-tagged TopBP1-BRCT0-5 expressed in 293T cells (protein)
chain: MSRNDKEPFFVKFLKSSDNSKCFFKALESIKEFQSEEYLQIITEEEALKIKENDRSLYICDPFSGVVFDHLKKLGCRIVGPQVVIFCMHHQRCVPRAEHPVYNMVMSDVTISCTSLEKEKREEVHKYVQMMGGRVYRDLNVSVTHLIAGEVGSKKYLVAANLKKPILLPSWIKTLWEKSQEKKITRYTDINMEDFKCPIFLGCIICVTGLCGLDRKEVQQLTVKHGGQYMGQLKMNECTHLIVQEPKGQKYECAKRWNVHCVTTQWFFDSIEKGFCQDESIYKTEPRPEAKTMPNSSTPTSQINTIDSRTLSDVSNISNINASCVSESICNSLNSKLEPTLENLENLDVSAFQAPEDLLDGCRIYLCGFSGRKLDKLRRLINSGGGVRFNQLNEDVTHVIVGDYDDELKQFWNKSAHRPHVVGAKWLLECFSKGYMLSEEPYIHANYQPVEIPVSHKPESKAALLKKKNSSFSKKDFAPSEKHEQADEDLLSQYENGSSTVVEAKTSEARPFNDSTHAEPLNDSTHISLQEENQSSVSHCVPDVSTITEEGLFSQKSFLVLGFSNENESNIANIIKENAGKIMSLLSRTVADYAVVPLLGCEVEATVGEVVTNTWLVTCIDYQTLFDPKSNPLFTPVPVMTGMTPLEDCVISFSQCAGAEKESLTFLANLLGASVQEYFVRKSNAKKGMFASTHLILKERGGSKYEAAKKWNLPAVTIAWLLETARTGKRADESHFLIENSTKEERSLETEITNGINLNSDTAEHP
modifications: left off: Strep, C-terminal, kept
notes: 6Myc-TEV2-tagged TopBP1-BRCT0-5 expressed in 293T cells

Experiments:
[1] = test system: TopBP1-proximal proteins (Psf3, Psf2); test: APEX2 proximity biotinylation, streptavidin pulldown and mass spectrometry; assay type: cell-based, human; conditions: three proximity biotinylation experiments; + H2O2 vs - H2O2; four biological replicates
Method: Proximity labelling was performed in isogenic stable 293 Flip-In (Thermo Fisher; R75007) cells stably expressing TopBP1 N-terminal tagged with APEX2 or in 293T cells transiently expressing either N-terminal or C-terminally APEX2-tagged TopBP1. 24 h before transfection, 0.8 × 10^6 cells were seeded onto a 6-cm plate. For each condition, four dishes were separately transfected (biological replicates). One day after transfection, cells were incubated for 30 min with 500 µM biotin phenol at 37 °C, before incubation for 1 min at RT with or without (controls) 1 mM H2O2. The medium was discarded, and cells were washed three times with quenching buffer (10 mM sodium azide, 10 mM sodium ascorbate and 5 mM Trolox in Dulbecco’s PBS (Life Technologies 14190169). Cells were rinsed off the dishes with DPBS, transferred into reaction tubes before washing again with DPBS. Cells were lysed at 95 °C for 10 min in TSD buffer (50 mM Tris pH 7.5, 5 mM DTT and 1% SDS). Samples were diluted ten times with TNN buffer (20 mM Tris pH 7.9, 200 mM NaCl and 0.5% NP-40 alternative) and benzonase (75 U per sample) (Sigma E1014). Samples were incubated for 15 min at 4 °C and centrifuged at 21,000 × g for 2 min at 4 °C. Supernatants were incubated over night with 15 µl streptavidin sepharose beads (Sigma GE17-5113-01) at 4 °C. […]

[2] = test system: Sld5; test: Myc immunoprecipitation from transfected 293T cells, Sld5 co-IP; assay type: binding; conditions: transiently transfected 293T cell lysates, anti-Myc
Method: Transient transfections of 6xMyc-Tev2-TopBP1 into 293T cells (ATCC CRL-11268) were carried out using PEI (polyethyleneimine) according to a protocol kindly shared by David Cortez’ lab. 4 µg plasmid DNA in 100 µl DMEM (Thermofisher, 41965039) without penicillin-streptomycin were combined with 2.4 µl Polyethylenimin (Sigma, 408727; 10 mg/ml) and incubated for 20 min before addition to 4 × 10^6 cells on a 10-cm dish. Transfected cells were used 72 h post transfection. 72 h post transfection, 293T cells were lysed by douncing in ten times cell pellet volume of lysis buffer (20 mM HEPES pH 8.0, 150 mM NaCl, 0.1% (v/v) Tween-20, 0.5 mM TCEP, 2% (v/v) glycerol, protease inhibitor cocktail (Roche, Complete protease inhibitor cocktail, 05056489001)), and centrifuged at 20,000 × g for 15 min at 4 °C. The soluble supernatant was added to magnetic anti-Myc beads (5 µl slurry per sample; Thermofischer, 88842) and incubated for 2 h at 4 °C rotating. Cells equivalent to 50% of a 15 cm dish were used per sample. Beads were washed three times in lysis buffer with 5 min incubation each, and finally boiled in 50 µl Laemmli loading buffer (6.5% glycerol, 715 mM β-mercaptoethanol, 3% SDS, 62.5 mM Tris-HCl pH 7.9, 0.005% bromphenol blue).
Non-APEX2-bio=nylated samples (-H2O2) were used as controls. […] Immunoprecipitated TopBP1 was detected using Ponceau (Ponc.) staining. […]

Row | Molecule | enrichment of Psf3 upon streptavidin pulldown [1] | Sld5 co-immunoprecipitation [2]
1 | APEX2-tagged TopBP1: N- or C-terminally APEX2-tagged TopBP1 | specific enrichment of Psf3 | –
2 | B1 | – | weak but specific signal
